Results on twelve compounds are retold here after US10981926B2 (Janssen Pharmaceutica NV, priority 2016, dated 2021).

Where only a bound is given, the exact number is not on record here.

Test [1] concerns the target T1, F876L mutant Androgen Receptor (AR-F876L) (Homo sapiens (Human), UniProt P10275, F877L). In words: LNCaP-AR-F876L AG reporter assay (agonist mode). In kind it is cell-based. To be noted: for EC50: read-out: LNCaP-AR-F876L AG pEC50 (converted); for Emax: maximum % stimulation (agonist response) over the tested concentration range, read-out: LNCaP-AR-F876L AG MAX % Stim. A general note: A reporter such as luciferase makes a cellular process visible.

The subject of the next test is rGABA-gated Cl− channel. Briefly: GABA-Gated Cl Channel Antagonist Radioligand Binding Assay. Also noted: species or system rat. To be noted: 10 μM single point, [35S]-TBPS, cerebral cortex membrane homogenates. An outline of the steps:
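Rat cerebral cortex membranes (120 μg protein) incubated 120 min at 22° C with 3 nM […] in 50 mM Na2HPO4/KH2PO4 pH 7.4, 500 mM NaCl; nonspecific binding defined with 20 μM picrotoxinin. Bound label counted after filtration; values are percent inhibition of specific binding at 10 μM compound.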

Test [2] deals with T2, wild-type Androgen Receptor (AR-wt) (Homo sapiens (Human), UniProt P10275). Briefly: LNCaP-AR-wt ANT reporter assay (antagonist mode). Type of test: cell-based. To be noted: for LNCaP-AR-wt ANT pIC50 / IC50: antagonist mode, pIC50 = −Log10(IC50 in Molar); for Emax: maximum % inhibition of R1881 control response over the tested concentration range, read-out: LNCaP-AR-wt ANT MAX % Inh; for IC50: read-out: LNCaP-AR-wt ANT pIC50 (converted).

In test [3] the target is T2, wild-type Androgen Receptor (AR-wt). Briefly: LNCaP-AR-wt AG reporter assay (agonist mode). In kind it is cell-based. To be noted: for EC50: read-out: LNCaP-AR-wt AG pEC50 (converted); for Emax: maximum % stimulation (agonist response) over the tested concentration range, read-out: LNCaP-AR-wt AG MAX % Stim.
Test [4] addresses T1, F876L mutant Androgen Receptor (AR-F876L). Briefly: LNCaP-AR-F876L ANT reporter assay (antagonist mode). Type of test: cell-based. The following applies: for Emax: maximum % inhibition of R1881 control response over the tested concentration range, read-out: LNCaP-AR-F876L ANT MAX % Inh; for IC50: read-out: LNCaP-AR-F876L ANT pIC50 (converted).
[5] abbreviates: agonist mode, pEC50 = −Log10(EC50 in Molar).
Where [6] appears, read: antagonist mode, pIC50 = −Log10(IC50 in Molar).

T1 sequence (P10275 whole entry F877L): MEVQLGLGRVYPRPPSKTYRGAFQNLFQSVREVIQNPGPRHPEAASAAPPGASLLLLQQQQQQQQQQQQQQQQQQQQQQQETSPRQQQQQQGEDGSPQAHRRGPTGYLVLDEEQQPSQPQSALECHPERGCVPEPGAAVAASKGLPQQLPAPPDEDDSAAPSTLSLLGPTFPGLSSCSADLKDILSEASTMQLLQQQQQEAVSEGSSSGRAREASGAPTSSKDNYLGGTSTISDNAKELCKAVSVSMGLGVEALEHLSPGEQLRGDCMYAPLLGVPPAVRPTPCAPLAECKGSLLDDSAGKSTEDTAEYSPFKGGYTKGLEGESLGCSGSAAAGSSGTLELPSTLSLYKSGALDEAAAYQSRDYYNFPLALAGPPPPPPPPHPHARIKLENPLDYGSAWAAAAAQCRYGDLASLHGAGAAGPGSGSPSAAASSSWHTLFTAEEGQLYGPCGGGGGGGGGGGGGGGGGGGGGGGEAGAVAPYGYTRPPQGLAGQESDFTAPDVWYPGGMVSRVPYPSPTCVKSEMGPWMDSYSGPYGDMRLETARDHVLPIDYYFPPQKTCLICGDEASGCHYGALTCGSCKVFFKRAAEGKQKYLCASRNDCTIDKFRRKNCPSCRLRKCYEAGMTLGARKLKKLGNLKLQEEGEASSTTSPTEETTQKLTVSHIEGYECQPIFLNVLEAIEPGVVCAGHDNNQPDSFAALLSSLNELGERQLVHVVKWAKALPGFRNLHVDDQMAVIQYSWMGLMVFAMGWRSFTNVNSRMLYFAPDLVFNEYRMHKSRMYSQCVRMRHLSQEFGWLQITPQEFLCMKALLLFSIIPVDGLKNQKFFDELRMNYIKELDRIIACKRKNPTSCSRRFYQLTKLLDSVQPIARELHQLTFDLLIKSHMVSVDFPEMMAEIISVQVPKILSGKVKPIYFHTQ
T2 sequence (P10275 whole entry): as the sequence (P10275 whole entry F877L) above, with L877F counted along it

As for `N#Cc1ncc(N2C(=O)C3(CCC3)N(c3ccc(CN4CCNCC4)cc3)C2=S)cc1C(F)(F)F` [Cpd 48, 5-[5-oxo-8-[4-(piperazin-1-ylmethyl)phenyl]-7-thioxo-6,8-diazaspiro[3.4]octan-6-yl]-3-(trifluoromethyl)pyridine-2-carbonitrile], the EC50 in test [1] (setting [5]) and in test [3] (setting [5]) was > 15100 nM each time. Also, the Emax in test [1] came out at 0.2%; in test [2] it was 102%; in test [3], 0%; in test [4] it was 100%. For the same compound, the “rGABA-gated Cl− channel % inh @10 μM” value in the test with rGABA-gated Cl− channel was found to be 37.2%. In test [2], the “LNCaP-AR-wt ANT pIC50” value was 6.45. In addition, the “LNCaP-AR-F876L ANT pIC50” value in test [4] (setting [6]) was determined as 6.69.
`CCOC(=O)N1CCC(CNC(=O)c2ccc(N3C(=S)N(c4cnc(C#N)c(C(F)(F)F)c4)C(=O)C34CCC4)cc2)CC1` [Cpd 49, ethyl 4-[[[4-[6-[6-cyano-5-(trifluoromethyl)-3-pyridyl]-5-oxo-7-thioxo-6,8-diazaspiro[3.4]octan-8-yl]benzoyl]amino]methyl]piperidine-1-carboxylate]: the EC50 in test [1] (setting [5]) and in test [3] (setting [5]) was > 15100 nM throughout. For the same compound, the Emax was found to be 0.4% in test [1], 101% in test [2], 0.3% in test [3] and 99.5% in test [4]. Further, the “rGABA-gated Cl− channel % inh @10 μM” value with rGABA-gated Cl− channel is given as 86.4%. The IC50 is 105 nM in test [2] and 56.2 nM in test [4] (setting [6]).
As to `N#Cc1ncc(N2C(=O)C3(CCC3)N(c3ccc(OC4CCN(CCO)CC4)cc3)C2=S)cc1Cl` [Cpd 50, 3-chloro-5-[8-[4-[[1-(2-hydroxyethyl)-4-piperidyl]oxy]phenyl]-5-oxo-7-thioxo-6,8-diazaspiro[3.4]octan-6-yl]pyridine-2-carbonitrile], the EC50 in test [1] (setting [5]) and in test [3] (setting [5]) was > 15100 nM each time. For the same compound, the Emax worked out at 1.4% in test [1], 101% in test [2], 0.1% in test [3] and 98% in test [4]. The “rGABA-gated Cl− channel % inh @10 μM” value in the test with rGABA-gated Cl− channel is 13.2%. The IC50 in test [2] was 16.2 nM; in test [4] (setting [6]), 8.71 nM.
On to `CN1[C@@H]2CC[C@H]1C[C@H](Oc1ccc(N3C(=S)N(c4cnc(C#N)c(C(F)(F)F)c4)C(=O)C34CCC4)cc1)C2` [Cpd 52, 5-[8-[4-[[(1R,3s,5S)-8-methyl-8-azabicyclo[3.2.1]octan-3-yl]oxy]phenyl]-5-oxo-7-thioxo-6,8-diazaspiro[3.4]octan-6-yl]-3-(trifluoromethyl)pyridine-2-carbonitrile], for which the “LNCaP-AR-F876L AG pEC50” value in test [1] (setting [5]) is <4.82. The Emax came to 0.8% in test [1], 98.3% in test [2], 2.8% in test [3] and 98.9% in test [4]. Besides, the “rGABA-gated Cl− channel % inh @10 μM” value in the test with rGABA-gated Cl− channel came out at 13.1%. Moreover, the “LNCaP-AR-wt ANT pIC50” value in test [2] stood at 6.76. The “LNCaP-AR-wt AG pEC50” value in test [3] (setting [5]) is recorded as <4.82. In test [4] (setting [6]), the IC50 was 43.7 nM.
Turning to `CNC(=O)N1CCN(Cc2ccc(N3C(=S)N(c4cnc(C#N)c(C(F)(F)F)c4)C(=O)C34CCC4)cc2)CC1` [Cpd 53, 4-[[4-[6-[6-cyano-5-(trifluoromethyl)-3-pyridyl]-5-oxo-7-thioxo-6,8-diazaspiro[3.4]octan-8-yl]phenyl]methyl]-N-methyl-piperazine-1-carboxamide], the EC50 in test [1] (setting [5]) and in test [3] (setting [5]) was > 15100 nM each time. Besides, the Emax was determined as 0.1% in test [1], 102% in test [2], 0.4% in test [3] and 100% in test [4]. Also, the “rGABA-gated Cl− channel % inh @10 μM” value in the test with rGABA-gated Cl− channel is 52.4%. The IC50 is 123 nM in test [2] and 45.7 nM in test [4] (setting [6]).
For `N#Cc1ncc(N2C(=O)C3(CCC3)N(c3ccc(OCC4CC(F)(F)CN4)cc3)C2=S)cc1C(F)(F)F` (stereo not drawn) [Cpd 54, 5-[8-[4-[(4,4-difluoropyrrolidin-2-yl)methoxy]phenyl]-5-oxo-7-thioxo-6,8-diazaspiro[3.4]octan-6-yl]-3-(trifluoromethyl)pyridine-2-carbonitrile], the EC50 in test [1] (setting [5]) and in test [3] (setting [5]) was > 15100 nM throughout. In addition, the Emax in test [1] is 0.7%; in test [2] it was 101%; in test [3] it was 1.3%; in test [4], 97.1%. The “rGABA-gated Cl− channel % inh @10 μM” value with rGABA-gated Cl− channel came out at 93.0%. Moreover, the IC50 in test [2] was 81.3 nM; in test [4] (setting [6]) it was 93.3 nM.
In the case of `CCOC(=O)N1CCN(Cc2ccc(N3C(=S)N(c4cnc(C#N)c(C(F)(F)F)c4)C(=O)C34CCC4)cc2)CC1` [Cpd 55, Ethyl 4-[[4-[6-[6-cyano-5-(trifluoromethyl)-3-pyridyl]-5-oxo-7-thioxo-6,8-diazaspiro[3.4]octan-8-yl]phenyl]methyl]piperazine-1-carboxylate], the EC50 in test [1] (setting [5]) and in test [3] (setting [5]) was > 15100 nM each time. For the same compound, the Emax in test [1] is 0.5%; in test [2], 104%; in test [3], 0.6%; in test [4] it was 101%. Moreover, in the test on rGABA-gated Cl− channel, the “rGABA-gated Cl− channel % inh @10 μM” value is reported as 100.0%. Besides, the IC50 is 72.4 nM in test [2] and 40.7 nM in test [4] (setting [6]).
In the case of `CCOC(=O)N1CCN(c2ccc(N3C(=S)N(c4cnc(C#N)c(C(F)(F)F)c4)C(=O)C34CCC4)cc2)CC1` [Cpd 58, Ethyl 4-[4-[6-[6-cyano-5-(trifluoromethyl)-3-pyridyl]-5-oxo-7-thioxo-6,8-diazaspiro[3.4]octan-8-yl]phenyl]piperazine-1-carboxylate], the EC50 in test [1] (setting [5]) and in test [3] (setting [5]) was > 15100 nM each time. Besides, the Emax in test [1] worked out at 1%; in test [2], 101%; in test [3] it was 0%; in test [4], 98.1%. The “rGABA-gated Cl− channel % inh @10 μM” value in the test with rGABA-gated Cl− channel came out at 88.1%. The IC50 in test [2] was 87.1 nM; in test [4] (setting [6]), 93.3 nM.
For the compound `CN1CC(COc2ccc(N3C(=S)N(c4cnc(C#N)c(C(F)(F)F)c4)C(=O)C34CCC4)cc2)C1` [Cpd 59, 5-[8-[4-[(1-methylazetidin-3-yl)methoxy]phenyl]-5-oxo-7-thioxo-6,8-diazaspiro[3.4]octan-6-yl]-3-(trifluoromethyl)pyridine-2-carbonitrile], the EC50 in test [1] (setting [5]) and in test [3] (setting [5]) was > 15100 nM throughout. Further, the Emax worked out at 0.1% in test [1], 102% in test [2], 0% in test [3] and 100% in test [4]. Moreover, in the test on rGABA-gated Cl− channel, the “rGABA-gated Cl− channel % inh @10 μM” value is listed as 16.0%. In addition, the IC50 in test [2] was 135 nM; in test [4] (setting [6]), 56.2 nM.
Turning to `N#CCN1CCC(Oc2ccc(N3C(=S)N(c4cnc(C#N)c(C(F)(F)F)c4)C(=O)C34CCC4)cn2)CC1` [Cpd 60, 5-[8-[6-[[1-(cyanomethyl)-4-piperidyl]oxy]-3-pyridyl]-5-oxo-7-thioxo-6,8-diazaspiro[3.4]octan-6-yl]-3-(trifluoromethyl)pyridine-2-carbonitrile], the EC50 in test [1] (setting [5]) and in test [3] (setting [5]) was > 15100 nM in each case. Further, the Emax in test [1] stood at 0.6%; in test [2], 99.2%; in test [3], 0.8%; in test [4] it was 98.1%. The “rGABA-gated Cl− channel % inh @10 μM” value in the test with rGABA-gated Cl− channel amounted to 91.5%. The IC50 was 22.9 nM in test [2] and 9.55 nM in test [4] (setting [6]).
For the compound `COCCN1CCC(Oc2ccc(N3C(=S)N(c4cnc(C#N)c(C(F)(F)F)c4)C(=O)C34CCC4)cn2)CC1` [Cpd 61, 5-[8-[6-[[1-(2-methoxyethyl)-4-piperidyl]oxy]-3-pyridyl]-5-oxo-7-thioxo-6,8-diazaspiro[3.4]octan-6-yl]-3-(trifluoromethyl)pyridine-2-carbonitrile], the EC50 in test [1] (setting [5]) and in test [3] (setting [5]) was > 15100 nM throughout. Also, the Emax turned out to be 0.3% in test [1], 99.2% in test [2], 0.4% in test [3] and 98.8% in test [4]. Moreover, the “rGABA-gated Cl− channel % inh @10 μM” value in the test with rGABA-gated Cl− channel is 26.1%. The IC50 in test [2] was 29.5 nM; in test [4] (setting [6]), 36.3 nM.
Turning to `Cc1cc(N2C(=O)C3(CCC3)N(c3ccc(OC4CCN(CC(F)(F)F)CC4)nc3)C2=S)cnc1C#N` [Cpd 62, 3-methyl-5-[5-oxo-7-thioxo-8-[6-[[1-(2,2,2-trifluoroethyl)-4-piperidyl]oxy]-3-pyridyl]-6,8-diazaspiro[3.4]octan-6-yl]pyridine-2-carbonitrile], the EC50 in test [1] (setting [5]) and in test [3] (setting [5]) was > 15100 nM each time. The Emax in test [1] was 0.2%; in test [2], 100%; in test [3], 0.5%; in test [4] it was 98.4%. In addition, the “rGABA-gated Cl− channel % inh @10 μM” value in the test on rGABA-gated Cl− channel was found to be 61.0%. The IC50 in test [2] was 38 nM; in test [4] (setting [6]), 26.9 nM.
